Columns and labels:
Format in all cases: in vivo
rice (Oryza sativa) = experiment: Test B flooded paddy test, visual plant response rating; details: 250 g ai/ha, Flood, applied to paddy water, 2-leaf stage, evaluated after 13 to 15 days
Protocol: (§1) Plant species in the flooded paddy test selected from rice (Oryza sativa), sedge, umbrella (small-flower umbrella sedge, Cyperus difformis), ducksalad (Heteranhera limosa), and barnyardgrass (Echinochloa crus-galli) were grown to the 2-leaf stage for testing. At time of treatment, test pots were flooded to 3 cm above the soil surface treated by application of test compounds directly to the paddy water, and then maintained at that water depth for the duration of the test. Treated plants and controls were maintained in a greenhouse for 13 to 15 days, after which time all species were compared to controls and visually evaluated. […] A dash (-) response means no test result.

[1] = tested on: barnyardgrass (Echinochloa crus-galli); experiment: as above; details: 250 g ai/ha, Flood, applied to paddy water, 2-leaf stage, evaluated after 13 to 15 days
Protocol: as §1

[2] = tested on: sedge, umbrella (small-flower umbrella sedge, Cyperus difformis); experiment: as above; details: 250 g ai/ha, Flood, applied to paddy water, 2-leaf stage, evaluated after 13 to 15 days
Protocol: as §1

[3] = tested on: ducksalad (Heteranhera limosa); experiment: as above; details: 250 g ai/ha, Flood, applied to paddy water, 2-leaf stage, evaluated after 13 to 15 days
Protocol: as §1

[4] = tested on: ragweed (common ragweed, Ambrosia elatior); experiment: Test A preemergence, visual plant response rating; details: for Ragweed plant response rating: 125 g ai/ha, preemergence, 0 to 100 scale, 0 no effect, 100 complete control; for Ragweed plant response rating (0 to 100 scale): 500 g ai/ha Preemergence, approx. 10 days
How it was run: (§2)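 Ratings 0–100 (100 = complete control), visual, vs untreated controls at ~10 days. Application pre- or postemergence; solvent mixture with surfactant; loam/sand medium.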

[5] = tested on: Italian ryegrass (Lolium multiflorum); experiment: Test A preemergence, visual plant response rating; details: for Ryegrass, Italian plant response rating: 125 g ai/ha, preemergence, 0 to 100 scale, 0 no effect, 100 complete control; for Ryegrass, Italian plant response rating (0 to 100 scale): 500 g ai/ha Preemergence, approx. 10 days
How it was run: as §2

[6] = tested on: pigweed (Amaranthus retroflexus); experiment: Test A preemergence, visual plant response rating; details: for Pigweed plant response rating: 125 g ai/ha, preemergence, 0 to 100 scale, 0 no effect, 100 complete control; for Pigweed plant response rating (0 to 100 scale): 500 g ai/ha Preemergence, approx. 10 days
How it was run: as §2

[7] = tested on: barnyardgrass (Echinochloa crus-galli); experiment: Test A preemergence, visual plant response rating; details: for Barnyardgrass plant response rating: 125 g ai/ha, preemergence, 0 to 100 scale, 0 no effect, 100 complete control; for Barnyardgrass plant response rating (0 to 100 scale): 500 g ai/ha Preemergence, approx. 10 days
How it was run: as §2

[8] = tested on: foxtail, giant (giant foxtail, Setaria faberii); experiment: Test A preemergence, visual plant response rating; details: for Foxtail, Giant plant response rating: 125 g ai/ha, preemergence, 0 to 100 scale, 0 no effect, 100 complete control; for Foxtail, Giant plant response rating (0 to 100 scale): 500 g ai/ha Preemergence, approx. 10 days
How it was run: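 Greenhouse pot test in loam–sand soil mix: compound in a surfactant-containing non-phytotoxic solvent applied preemergence (directed soil spray) or postemergence (one- to two-leaf plants, 2–10 cm). Injury scored visually after ~10 days, 0–100.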

kochia (Kochia scoparia) [9] = experiment: Test A preemergence, visual plant response rating; details: for Kochia plant response rating: 125 g ai/ha, preemergence, 0 to 100 scale, 0 no effect, 100 complete control; for Kochia plant response rating (0 to 100 scale): 500 g ai/ha Preemergence, approx. 10 days
How it was run: as §2

[10] = tested on: ragweed (common ragweed, Ambrosia elatior); experiment: Test A postemergence, visual plant response rating; details: for Ragweed plant response rating (0 to 100 scale): 500 g ai/ha, postemergence, 0 is no effect, 100 is complete control; for Ragweed plant response rating: Postemergence, 125 g ai/ha, 0 to 100 scale (0 no effect, 100 complete control)
Source text: (§3) Seeds of plant species selected from barnyardgrass (Echinochloa crus-galli), kochia (Kochia scoparia), ragweed (common ragweed, Ambrosia elatior), Italian ryegrass (Lolium multiflorum), foxtail, giant (giant foxtail, Setaria faberii), foxtail, green (green foxtail, Setaria viridis), and pigweed (Amaranthus retroflexus) were planted into a blend of loam soil and sand and treated preemergence with a directed soil spray using test chemicals formulated in a non-phytotoxic solvent mixture which included a surfactant.
(§4) At the same time, plants selected from these weed species and also wheat (Triticum aestivum), corn (Zea mays), blackgrass (Alopecurus myosuroides), and galium (catchweed bedstraw, Galium aparine) were planted in pots containing the same blend of loam soil and sand and treated with postemergence applications of test chemicals formulated in the same manner. Plants ranged in height from 2 to 10 cm and were in the one- to two-leaf stage for the postemergence treatment. Treated plants and untreated controls were maintained in a greenhouse for approximately 10 days, after which time all treated plants were compared to untreated controls and visually evaluated for injury. Plant response ratings, summarized in Table A, are based on a 0 to 100 scale where 0 is no effect and 100 is complete control. A dash (-) response means no test result.

[11] = tested on: Italian ryegrass (Lolium multiflorum); experiment: Test A postemergence, visual plant response rating; details: for Ryegrass, Italian plant response rating (0 to 100 scale): 500 g ai/ha, postemergence, 0 is no effect, 100 is complete control; for Ryegrass, Italian plant response rating: Postemergence, 125 g ai/ha, 0 to 100 scale (0 no effect, 100 complete control)
Source text: as §3, §4

[12] = tested on: pigweed (Amaranthus retroflexus); experiment: Test A postemergence, visual plant response rating; details: for Pigweed plant response rating (0 to 100 scale): 500 g ai/ha, postemergence, 0 is no effect, 100 is complete control; for Pigweed plant response rating: Postemergence, 125 g ai/ha, 0 to 100 scale (0 no effect, 100 complete control)
Source text: as §3, §4

[13] = tested on: barnyardgrass (Echinochloa crus-galli); experiment: Test A postemergence, visual plant response rating; details: for Barnyardgrass plant response rating (0 to 100 scale): 500 g ai/ha, postemergence, 0 is no effect, 100 is complete control; for Barnyardgrass plant response rating: Postemergence, 125 g ai/ha, 0 to 100 scale (0 no effect, 100 complete control)
Source text: as §3, §4

[14] = tested on: foxtail, giant (giant foxtail, Setaria faberii); experiment: Test A postemergence, visual plant response rating; details: for Foxtail, Giant plant response rating (0 to 100 scale): 500 g ai/ha, postemergence, 0 is no effect, 100 is complete control; for Foxtail, Giant plant response rating: Postemergence, 125 g ai/ha, 0 to 100 scale (0 no effect, 100 complete control)
Source text: as §3, §4

[15] = tested on: galium (catchweed bedstraw, Galium aparine); experiment: Test A postemergence, visual plant response rating; details: for Galium plant response rating (0 to 100 scale): 500 g ai/ha, postemergence, 0 is no effect, 100 is complete control; for Galium plant response rating: Postemergence, 125 g ai/ha, 0 to 100 scale (0 no effect, 100 complete control)
Source text: as §3, §4

[16] = tested on: wheat (Triticum aestivum); experiment: Test A postemergence, visual plant response rating; details: for Wheat plant response rating (0 to 100 scale): 500 g ai/ha, postemergence, 0 is no effect, 100 is complete control; for Wheat plant response rating: Postemergence, 125 g ai/ha, 0 to 100 scale (0 no effect, 100 complete control)
Source text: as §3, §4

kochia (Kochia scoparia) [17] = experiment: Test A postemergence, visual plant response rating; details: for Kochia plant response rating (0 to 100 scale): 500 g ai/ha, postemergence, 0 is no effect, 100 is complete control; for Kochia plant response rating: Postemergence, 125 g ai/ha, 0 to 100 scale (0 no effect, 100 complete control)
Source text: as §3, §4

[18] = tested on: blackgrass (Alopecurus myosuroides); experiment: Test A postemergence, visual plant response rating; details: for Blackgrass plant response rating (0 to 100 scale): 500 g ai/ha, postemergence, 0 is no effect, 100 is complete control; for Blackgrass plant response rating: Postemergence, 125 g ai/ha, 0 to 100 scale (0 no effect, 100 complete control)
Source text: as §3, §4

corn (Zea mays) = experiment: Test A postemergence, visual plant response rating; details: for Corn plant response rating (0 to 100 scale): 500 g ai/ha, postemergence, 0 is no effect, 100 is complete control; for Corn plant response rating: Postemergence, 125 g ai/ha, 0 to 100 scale (0 no effect, 100 complete control)
Source text: as §3, §4

SMILES	Plant response rating, Rice (0 to 100 scale, 0 is no effect, 100 is complete control) (rice (Oryza sativa))	Plant response rating, Barnyardgrass (0 to 100 scale, 0 is no effect, 100 is complete control) [1]	Plant response rating, Sedge, Umbrella (0 to 100 scale, 0 is no effect, 100 is complete control) [2]	Plant response rating, Ducksalad (0 to 100 scale, 0 is no effect, 100 is complete control) [3]	Ryegrass, Italian plant response rating [5]	Ryegrass, Italian plant response rating (0 to 100 scale) [5]	Pigweed plant response rating [6]	Pigweed plant response rating (0 to 100 scale) [6]	Barnyardgrass plant response rating [7]	Barnyardgrass plant response rating (0 to 100 scale) [7]	Foxtail, Giant plant response rating [8]	Foxtail, Giant plant response rating (0 to 100 scale) [8]	Kochia plant response rating (kochia (Kochia scoparia) [9])	Kochia plant response rating (0 to 100 scale) (kochia (Kochia scoparia) [9])	Ragweed plant response rating (0 to 100 scale) [10]	Ragweed plant response rating [10]	Ryegrass, Italian plant response rating (0 to 100 scale) [11]	Ryegrass, Italian plant response rating [11]	Pigweed plant response rating (0 to 100 scale) [12]	Pigweed plant response rating [12]	other results
C#CCON=C(c1c(O)c(C)nn(C)c1=O)c1cc(Br)cc2ccccc12 [Compound 116]	5	55	30	60	100	100	100	100	100	100	90	100	10	100	100	100	100	90	100	90	Ragweed plant response rating [4]: 90; Ragweed plant response rating (0 to 100 scale) [4]: 90; Barnyardgrass plant response rating (0 to 100 scale) [13]: 90; Barnyardgrass plant response rating [13]: 90; Foxtail, Giant plant response rating (0 to 100 scale) [14]: 90; Foxtail, Giant plant response rating [14]: 90; Galium plant response rating (0 to 100 scale) [15]: 100; Galium plant response rating [15]: 100; Wheat plant response rating (0 to 100 scale) [16]: 60; Wheat plant response rating [16]: 50; Kochia plant response rating (0 to 100 scale) (kochia (Kochia scoparia) [17]): 80; Kochia plant response rating (kochia (Kochia scoparia) [17]): 60; Blackgrass plant response rating (0 to 100 scale) [18]: 100; Blackgrass plant response rating [18]: 100; Corn plant response rating (0 to 100 scale) (corn (Zea mays)): 80; Corn plant response rating (corn (Zea mays)): 30
CCO/N=C(\c1c(O)c(C)nn(C)c1=O)c1cccc2ccccc12 [Compound 79]	0	0	0	0	30	60	30	100	70	80	60	90	10	70	100	90	30	30	90	80	Ragweed plant response rating [4]: 90; Ragweed plant response rating (0 to 100 scale) [4]: 100; Barnyardgrass plant response rating (0 to 100 scale) [13]: 90; Barnyardgrass plant response rating [13]: 40; Foxtail, Giant plant response rating (0 to 100 scale) [14]: 80; Foxtail, Giant plant response rating [14]: 60; Galium plant response rating (0 to 100 scale) [15]: 100; Galium plant response rating [15]: 90; Wheat plant response rating (0 to 100 scale) [16]: 0; Wheat plant response rating [16]: 0; Kochia plant response rating (0 to 100 scale) (kochia (Kochia scoparia) [17]): 80; Kochia plant response rating (kochia (Kochia scoparia) [17]): 70; Blackgrass plant response rating (0 to 100 scale) [18]: 80; Blackgrass plant response rating [18]: 70; Corn plant response rating (0 to 100 scale) (corn (Zea mays)): 20; Corn plant response rating (corn (Zea mays)): 10
CON=C(c1cc(Cl)ccc1Cl)c1c(O)c(C)nn(C)c1=O [Compound 90]	0	0	0	0	60	90	90	100	60	80	50	90	50	70	90	70	90	80	90	60	Barnyardgrass plant response rating (0 to 100 scale) [13]: 60; Barnyardgrass plant response rating [13]: 20; Foxtail, Giant plant response rating (0 to 100 scale) [14]: 80; Foxtail, Giant plant response rating [14]: 30; Galium plant response rating (0 to 100 scale) [15]: 90; Galium plant response rating [15]: 90; Wheat plant response rating (0 to 100 scale) [16]: 40; Wheat plant response rating [16]: 30; Kochia plant response rating (0 to 100 scale) (kochia (Kochia scoparia) [17]): 80; Kochia plant response rating (kochia (Kochia scoparia) [17]): 60; Blackgrass plant response rating (0 to 100 scale) [18]: 90; Blackgrass plant response rating [18]: 80; Corn plant response rating (0 to 100 scale) (corn (Zea mays)): 30; Corn plant response rating (corn (Zea mays)): 20

Reference: patent publication US20210045385A1, “PYRIDAZINONE-SUBSTITUTED KETOXIMES AS HERBICIDES” (FMC Corporation, priority 2018, published 2021)
